Test results: patent US9687485B2, “Combination therapy with glutaminase inhibitors” (Calithera Biosciences, Inc., priority 2014, dated 2017)
Where two headings read alike, the source gives them in different places.

Tests used:
Type in all cases: cell-based
[1] = system: multiple myeloma cell lines; experiment: Co-administration, cell viability (Cell Titer Glo), multiple myeloma
Method: (§1) Cells were treated with a dose titration of either CB-839, an anti-cancer agent or a mixture thereof for 72 hours in growth media. At the end of the incubation, cell viability was measured using Cell Titer Glo as per manufacturer's protocol (Promega, Madison, Wis.). Cell proliferation for all compound treatments are represented as bar graphs, where luminescent output, Relative Light Units (RLU), correlates with viable cell number. Combination indices were calculated using the Calcusyn program (biosoft.com) and reported for individual mixtures of CB-839 and each agent.

H1650 NSCLC cell lines = experiment: Co-administration, cell viability, NSCLC (FIG. 26)
Method: as §1

[2] = system: triple negative breast cancer cell lines; experiment: Co-administration, cell viability (Cell Titer Glo), triple negative breast cancer
Method: as §1

[3] = system: renal cell carcinoma cell lines; experiment: Co-administration, cell viability (Cell Titer Glo), renal cell carcinoma
Method: as §1

[4] = system: renal clear cell carcinoma cells; experiment: Co-administration, cell viability, renal clear cell carcinoma (FIG. 25); conditions: combination with everolimus
Method: as §1

lung cancer cell lines = experiment: Co-administration, cell viability (Cell Titer Glo), lung cancer
Method: as §1

P493-6 (myc “on”) cells = experiment: Cell Proliferation Assay; conditions: read-out: Cell prolif P493 72 h IC50
Method: P493-6 (myc “on”) cells were maintained in growth media (RPMI-1640, 10% FBS, 2 mM glutamine, 100 units/ml Penicillin and 100 μg/ml streptomycin) at 37° C. with 5% CO2. For compound assay, P493-6 cells were plated in 96-well V-bottom plates on the day of compound addition in 50 μl of growth media at a cell density of 200,000 cells/ml (10,000 cells/well). Compounds were serially diluted in 100% DMSO at 200-times the final concentration. Compounds were diluted 100-fold into growth media and then 50 μl of this mixture was added to cell plates making the final concentration of DMSO 0.5%. Cells were incubated with compound for 72 hrs at 37° C. with 5% CO2 and analyzed for antiproliferative effects either by Cell Titer Glo (Promega) or FACS analysis using the Viacount (Millipore) kit on the Guava instrument.

Structure (SMILES): O=C(Cc1cccc(OC(F)(F)F)c1)Nc1ccc(CCCCc2nnc(NC(=O)Cc3ccccn3)s2)nn1 [CB-839]
- interaction of CB-839 with vincristine ([1]; FIG. 1, combination with vincristine, 72 hours): synergy
- interaction of CB-839 with AKT inhibitor MK2206 ([1]; FIG. 2, combination with MK2206, 72 hours): strong synergy
- interaction of CB-839 with mTOR inhibitor everolimus ([1]; FIG. 3, combination with everolimus, 72 hours): strong synergy
- interaction of CB-839 with MEK inhibitor trametinib ([1]; FIG. 4, combination with trametinib, 72 hours): strong synergy
- interaction of CB-839 with RTK inhibitor sorafenib ([1]; FIG. 5, combination with sorafenib, 72 hours): strong synergy
- effect of the combination of CB-839 and erlotinib (H1650 NSCLC cell lines; combination with erlotinib, erlotinib-resistant model): enhances the anti-tumor effects of each individual compound
- interaction of CB-839 with carboplatin ([2]; FIG. 6, combination with carboplatin, 72 hours): therapeutic interaction
- interaction of CB-839 with cytidine analog gemcitabine ([2]; FIG. 7, combination with gemcitabine, 72 hours): additive effect
- interaction of CB-839 with doxorubicin ([2]; FIG. 8, combination with doxorubicin, 72 hours): therapeutic interaction
- interaction of CB-839 with mTOR inhibitor everolimus ([2]; FIG. 9, combination with everolimus, 72 hours): synergy
- interaction of CB-839 with AKT inhibitor MK2206 ([2]; FIG. 10, combination with MK2206, 72 hours): synergy
- interaction of CB-839 with RTK inhibitor sorafenib ([3]; FIG. 17, combination with sorafenib, 72 hours): synergy
- interaction of CB-839 with C-kit and pan-RTK inhibitor sunitinib ([3]; FIG. 18, combination with sunitinib, 72 hours): synergy
- interaction of CB-839 with pan-RTK inhibitor pazopanib ([3]; FIG. 19, combination with pazopanib, 72 hours): synergy
- interaction of CB-839 with mTOR inhibitor everolimus ([3]; FIG. 20, combination with everolimus, 72 hours): synergy
- interaction of CB-839 with mTOR inhibitor temsirolimus ([3]; FIG. 21, combination with temsirolimus, 72 hours): synergy
- interaction of CB-839 with MEK inhibitor trametinib ([3]; FIG. 22, combination with trametinib, 72 hours): synergy
- interaction of CB-839 with AKT inhibitor MK2206 ([3]; FIG. 23, combination with MK2206, 72 hours): synergy
- interaction of CB-839 with PI3K/mTOR inhibitor BEZ235 ([3]; FIG. 24, combination with BEZ235, 72 hours): therapeutic interaction
- effect of the combination of CB-839 and everolimus [4]: synergistic antiproliferative activity
- interaction of CB-839 with EGFR inhibitor erlotinib (lung cancer cell lines; FIG. 11, combination with erlotinib, 72 hours): synergy
- interaction of CB-839 with MEK inhibitor trametinib (lung cancer cell lines; FIG. 12, combination with trametinib, 72 hours): synergy
- interaction of CB-839 with mTOR inhibitor everolimus (lung cancer cell lines; FIG. 13, combination with everolimus, 72 hours): synergy
- interaction of CB-839 with mTOR inhibitor temsirolimus (lung cancer cell lines; FIG. 14, combination with temsirolimus, 72 hours): synergy
- interaction of CB-839 with AKT inhibitor MK2206 (lung cancer cell lines; FIG. 15, combination with MK2206, 72 hours): synergy
- interaction of CB-839 with PI3K/mTOR inhibitor BEZ235 (lung cancer cell lines; FIG. 16, combination with BEZ235, 72 hours): synergy

Structure (SMILES): [2H]C([2H])(CCc1nnc(N)s1)C([2H])([2H])c1ccc(NC(=O)Cc2cccc(OC(F)(F)F)c2)nn1 [Compound 726]
- IC50 (P493-6 (myc “on”) cells; P493-6, 72 h): 610 nM

Structure (SMILES): [2H]C([2H])(CCc1nnc(NC(=O)Cc2ccccn2)s1)C([2H])([2H])c1ccc(NC(=O)Cc2cccc(OC(F)(F)F)c2)nn1 [Compound 727]
- IC50 (P493-6 (myc “on”) cells; 72 h): 12 nM

Structure (SMILES): C#Cc1cccc(Nc2ncnc3cc(OCCOC)c(OCCOC)cc23)c1 [erlotinib, reference compound]
- sensitivity of the cells to erlotinib (H1650 NSCLC cell lines; erlotinib alone): resistant
